Columns and labels:
PPAR alpha = biological target: T1, PPAR alpha (Rattus norvegicus, UniProt P37230); experiment: PPAR alpha transactivation assay in COS-1 cells; type: cell-based; conditions: at 10 μM, mean±SD n=3
T1 construct: 25 ng of vector DNA carrying PPAR alpha, delta or gamma; expressed in transfected cells; host or cells: COS-1 (African green monkey kidney cells)
T1 sequence (P37230 1-468): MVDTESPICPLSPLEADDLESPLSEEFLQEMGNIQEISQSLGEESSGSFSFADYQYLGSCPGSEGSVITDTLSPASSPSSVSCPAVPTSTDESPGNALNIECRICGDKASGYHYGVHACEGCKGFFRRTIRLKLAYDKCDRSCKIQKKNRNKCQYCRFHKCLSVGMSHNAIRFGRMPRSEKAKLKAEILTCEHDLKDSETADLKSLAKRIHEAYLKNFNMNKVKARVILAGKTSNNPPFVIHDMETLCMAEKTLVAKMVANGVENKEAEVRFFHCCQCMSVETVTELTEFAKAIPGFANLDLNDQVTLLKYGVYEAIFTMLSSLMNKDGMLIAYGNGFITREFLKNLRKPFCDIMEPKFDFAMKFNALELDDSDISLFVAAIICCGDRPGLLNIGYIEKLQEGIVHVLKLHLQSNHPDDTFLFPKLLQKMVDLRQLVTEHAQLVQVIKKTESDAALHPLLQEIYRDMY

[1] = 21-day diet study, bodyweights of SD rats; type: in vivo, rat; conditions: 300 ppm in diet, 21 days
Procedure: This experiment investigated the effect of compounds of different % linearity on body weight over a longer study period.
The diet study consisted of one control group of 4 male animals and 4 test groups of 4 male animals (as specified earlier in this Example). Animals received powdered RM1 diet alone, or RM1 diet containing 300 ppm XEN1001 or XEN1002, ad libitum for the duration of the study. Bodyweights were measured daily for 21 days.

[2] = Plasma levels of PFOA after 11 days oral dosing in SD rats (LC/MS/MS); type: in vivo, rat; conditions: 25 mg/kg oral daily for 11 days, 24 hours after final administration
Procedure: The study consisted of one control group of 8 male CD Sprague Dawley rats (8-10-weeks old; obtained from Harlan, UK) and 4 test groups that contained 4 rats. Animals received powdered RM1 diet ad libitum for the duration of the study. […] All chemicals were dissolved in Mazola corn oil (at 2.5 mg/ml) and test compounds were administered at 10 ml/kg bodyweight. Control animal received Mazola corn oil only. All animals were sacrificed after 11 days. Animals were killed by exposure to rising concentrations of CO2, and blood was harvested into lithium/heparin tubes for plasma.
Rat plasma samples were denatured by adding acetonitrile, and the amount of perfluorooctanoic acid (PFOA) present was determined by LC/MS/MS.

Compound | Fold activation of PPAR alpha, positive control (PPAR alpha) [fold] | Lost bodyweight up to day [1] [days] | Weight loss compared with XEN1001 [1] | Plasma concentration of PFOA (free acid) [2]
Cc1cccc(Nc2cc(Cl)nc(SCC(=O)O)n2)c1C [Wyeth14643] | 8.88 ± 1.94 | – | – | –
N.O=C(O)C(F)(F)C(F)(F)C(F)(F)C(F)(F)C(F)(F)C(F)(F)C(F)(F)F [XEN1002, Ammoniumperfluorooctanoate] | – | 10 | more pronounced | equimolar concentrations of PFOA

From patent US20060052451A1, “Method” (priority 2002, published 2006)
